Measurements: patent US12037419B2 (The Feinstein Institutes for Medical Research, priority 2016, dated 2024)

System: allogeneic primary human CD4 T cells
Assay: Allogeneic mixed lymphocyte reaction
Format: cell-based
Conditions: HMGB1 3 μg/ml, C1q 25 μg/ml
Description: Allogeneic CD4 T lymphocytes were isolated from blood using the Naïve CD4+ T cell isolation kit II (Miltenyi Biotec.) following the manufacturer's protocol. Cells were analyzed by flow cytometry (>90%). T cells were labeled with 5 μM Cell Trace Violet cell proliferation kit (Thermo Fisher Scientific), added to mono/macrophages at a density of 2×10^5 cells/well (a 1:2 ratio) in the presence of 1 μg/ml anti-CD3 (OKT3, eBioscience). Control cultures contained medium only or T cells or mono/macrophages alone. After 4 days, cells were stained with FITC-anti-CD4, PerCPCy 5.5-CD14, PE-LAIR-1 and fixable viability dyes (FVD, eBioscience) for 20 min at room temperature and subsequently washed and fixed. Live cells (FVD-negative cells) were then gated on CD4-positive, and cell trace violet was assessed by flow cytometry on a BD LSR II (BD Biosciences). Cell proliferation was analyzed as described (51). The % divided cells was defined as the probability that a cell has divided at least once from the original population. The division index was defined as the average number of cell divisions that a cell in the original population has undergone.

## C1q: C1q purified from pooled normal human sera, obtained from Complement Technology
  stimulation of T cells by monocytes exposed to both HMGB1 and C1q: poor stimulators of T cells
